In patent publication US20210246115A1 (Bioimics AB, priority 2017, published 2021):
Structures can show the parent of a compound that is named as a salt. Where two headings read alike, the source gives them in different places.

Legend:
[1] = tested on: N. gonorrhoeae ATCC 700825; experiment: MIC, N. gonorrhoeae ATCC 700825; assay type: cell-based; details: Neisseria gonorrhoeae, ATCC700825; Table XIV B. Gram-negative bacteria
[2] = tested on: K. pneumoniae ATCC 43816; experiment: MIC, K. pneumoniae ATCC 43816; assay type: cell-based; details: Klebsiella pneumoniae, ATCC43816; Table XIV B. Gram-negative bacteria
[3] = tested on: Staphylococcus aureus (ATCC25923); experiment: MIC, broth microdilution (CLSI), Staphylococcus aureus ATCC25923; details: Staphylococcus aureus, ATCC25923, read-out: S. aureus ATCC 25923 MIC
[4] = tested on: Pseudomonas aeruginosa (ATCC27853); experiment: MIC, broth microdilution (CLSI), Pseudomonas aeruginosa; assay type: cell-based
[5] = tested on: A. baumannii ATCC 17978; experiment: MIC, A. baumannii ATCC 17978; assay type: cell-based; details: Acinetobacter baumannii, ATCC17978; Table XIV B. Gram-negative bacteria
[6] = tested on: E. faecium ATCC 700221; experiment: MIC, E. faecium ATCC 700221; assay type: cell-based; details: Enterococcus faecium
[7] = tested on: S. aureus MRSA ATCC 33591; experiment: MIC, S. aureus MRSA ATCC 33591; assay type: cell-based; details: Staphylococcus aureus, read-out: S. aureus MRSA ATCC 33591 MIC
[8] = tested on: S. pneumoniae ATCC 49619; experiment: MIC, S. pneumoniae ATCC 49619; assay type: cell-based; details: Streptococcus pneumoniae, ATCC49619; Table XIV A. Gram-positive bacteria
[9] = tested on: Enterococcus faecalis (ATCC29212); experiment: MIC, broth microdilution (CLSI), Enterococcus faecalis; assay type: cell-based
[10] = tested on: Staphylococcus aureus subsp. aureus (ATCC29213); experiment: MIC, broth microdilution (CLSI), Staphylococcus aureus ATCC29213; assay type: cell-based; details: Staphylococcus aureus
[11] = tested on: H. influenzae ATCC 49247; experiment: MIC, H. influenzae ATCC 49247; assay type: cell-based; details: Haemophilus influenzae, ATCC49247; Table XIV B. Gram-negative bacteria
[12] = tested on: P. aeruginosa NTUH974 (MDR); experiment: MIC, P. aeruginosa NTUH974 (MDR); assay type: cell-based; details: Pseudomonas aeruginosa, read-out: P. aeruginosa NTUH974 (MDR) MIC
[13] = tested on: E. coli RNase P RNA, M1 RNA; experiment: Inhibition of bacterial RNase P activity, IC50 determination (cleavage of pATSerUG by M1 RNA); assay type: biochemical; details: NI: No inhibition
[14] = tested on: E. coli JW5503 (efflux defective); experiment: MIC, E. coli JW5503 (efflux defective); assay type: cell-based; details: Escherichia coli, read-out: E. coli JW5503 (efflux defective) MIC
[15] = tested on: Escherichia coli (ATCC25922); experiment: MIC, broth microdilution (CLSI), Escherichia coli; details: Escherichia coli
[16] = ATCC27853, Table XIV B. Gram-negative bacteria, read-out: P. aeruginosa ATCC 27853 MIC
[17] = ATCC700221, Table XIV A. Gram-positive bacteria, read-out: E. faecium ATCC 700221 MIC
[18] = Table XIV A. Gram-positive bacteria
[19] = ATCC29212, Table XIV A. Gram-positive bacteria, read-out: E. faecalis ATCC 29212 MIC
[20] = ATCC29213, Table XIV A. Gram-positive bacteria, read-out: S. aureus ATCC 29213 MIC
[21] = Table XIV B. Gram-negative bacteria
[22] = ATCC25922, read-out: E. coli ATCC 25922 MIC, Table XIII
[23] = ATCC25922, read-out: E. coli ATCC 25922 MIC, Table XIV B. Gram-negative bacteria
[24] = ATCC27853, read-out: P. aeruginosa ATCC 27853 MIC
[25] = ATCC700221, read-out: E. faecium ATCC 700221 MIC
[26] = ATCC29212, read-out: E. faecalis ATCC 29212 MIC
[27] = ATCC29213, read-out: S. aureus ATCC 29213 MIC, Table XIV A. Gram-positive bacteria
[28] = ATCC29213, Table XIII, read-out: S. aureus ATCC 29213 MIC

Row | SMILES | MIC [1] [µg/mL] | MIC [2] [µg/mL] | MIC [3] [µg/mL] | MIC [4, 16] [µg/mL] | MIC [5] [µg/mL] | MIC [6, 17] [µg/mL] | MIC [7, 18] [µg/mL] | MIC [8] [µg/mL] | MIC [9, 19] [µg/mL] | MIC [10, 20] [µg/mL] | MIC [11] [µg/mL] | MIC [12, 21] [µg/mL] | IC50 [13] [µM] | MIC [14] [µg/mL] | MIC [15, 22] [µg/mL] | MIC [15, 23] [µg/mL] | also measured
1 | Cc1cccc(C(CC(=O)Nc2ccc(CN)cc2)c2cn(CC3CCCCC3)c3ccccc23)c1.Cl (stereo not shown) [Compound 139, N-(4-(aminomethyl)phenyl)-3-(1-(cyclohexylmethyl)-1H-indol-3-yl)-3-(m-tolyl)propanamide hydrochloride salt] | 2 | > 128 | 2 | > 128 | > 128 | 4 | 8 | 16 | 4 | 4 | 16 | > 128 | 46 | 32 | > 512 | > 128 | 
2 | Cc1ccccc1C(CCNC1CCC(N)CC1)c1cn(CC2CCCCC2)c2ccccc12 (stereo not shown) [Compound 186, N1-(3-(1-(cyclohexylmethyl)-1H-indol-3-yl)-3-(o-tolyl)propyl)cyclohexane-1,4-diamine hydrochloride salt] | 2 | 8 | 4 |  | 4 |  |  | 8 |  |  | 8 |  | 3.6 | 2 | 4 | 4 | MIC [4, 24]: 16 µg/mL; MIC [6, 25]: 2 µg/mL; MIC [7]: 4 µg/mL; MIC [9, 26]: 4 µg/mL; MIC ([10]; ATCC29213, read-out: S. aureus ATCC 29213 MIC, Table XIII): 4 µg/mL; MIC [10, 27]: 4 µg/mL; MIC [12]: 32 µg/mL
3 | Cc1cccc(C(CCNC2CCC(N)CC2)c2cn(CC34CC5CC(CC(C5)C3)C4)c3ccccc23)c1 [Compound 232, (1S,4S)-N1-(3-(1-(((1S,4S)-adamantan-1-yl)methyl)-1H-indol-3-yl)-3-(m-tolyl)propyl)cyclohexane-1,4-diamine hydrochloride salt] | 4 | 8 | 2 | 32 | 8 | 2 | 4 | 8 | 4 | 4 | 8 | 32 | 8.3 | 4 | 5 | 4 | 
4 | NC1CCC(NCCC(c2cccc(C(F)(F)F)c2)c2cn(CC3CCCCC3)c3ccccc23)CC1 [Compound 168, (1S,4S)-N1-(3-(1-(cyclohexylmethyl)-1H-indol-3-yl)-3-(3-(trifluoromethyl)phenyl)propyl)cyclohexane-1,4-diamine hydrochloride salt] | 2 | 4 | 2 | 16 | 4 | 2 | 4 | 8 | 2 | 2 | 4 | 16 | 11 | 4 | 5 | 4 | 
5 | Cc1cccc(C(CCN2CCC(N)CC2)c2cn(CC3CCCCC3)c3ccccc23)c1 (stereo not shown) [Compound 216, 1-(3-(1-(cyclohexylmethyl)-1H-indol-3-yl)-3-(m-tolyl)propyl)piperidin-4-amine hydrochloride salt] | 2 | 128 | 4 |  | 8 |  |  | 8 |  |  | 4 |  | 25 | 4 | 4 | 8 | MIC [4, 24]: 64 µg/mL; MIC [6, 25]: 2 µg/mL; MIC [7]: 4 µg/mL; MIC [9, 26]: 4 µg/mL; MIC [10, 27]: 4 µg/mL; MIC [12]: 64 µg/mL
6 | Cc1cccc(C(CC(=O)NCCC2CCNCC2)c2cn(CC3CCCCC3)c3ccc(Br)cc23)c1.Cl (stereo not shown) [Compound 120, 3-(5-bromo-1-(cyclohexylmethyl)-1H-indol-3-yl)-N-(2-(piperidin-4-yl)ethyl)-3-(m-tolyl)propanamide hydrochloride salt] | 2 | 64 | 2 | 64 | 64 | 4 | 32 | 16 | 4 | 2 | 16 | 64 | 11 | 16 | > 512 | 32 | 
7 | NC1CCC(NCCC(c2cccc(Cl)c2)c2cn(CC3CCCCC3)c3ccccc23)CC1 [Compound 170, (1S,4S)-N1-(3-(3-chlorophenyl)-3-(1-(cyclohexylmethyl)-1H-indol-3-yl)propyl) cyclohexane-1,4-diamine hydrochloride salt] | 2 | 8 | 2 | 16 | 4 | 2 | 4 | 8 | 2 | 2 | 4 | 32 | 16 | 2 | 4 | 4 | 
8 | NC1CCC(NC(=O)CC(c2cccc(OC(F)(F)F)c2)c2cn(CC3CCCCC3)c3ccccc23)CC1 [Compound 143, N-((1S,4S)-4-aminocyclohexyl)-3-(1-(cyclohexylmethyl)-1H-indol-3-yl)-3-(3-(trifluoromethoxy)phenyl) propanamide hydrochloride salt] | 2 | > 128 | 2 |  | > 128 |  |  | 16 |  |  | 16 |  | 20 | 64 | > 512 | > 128 | MIC [4, 24]: > 128 µg/mL; MIC [6, 25]: 4 µg/mL; MIC [7]: 16 µg/mL; MIC [9, 26]: 4 µg/mL; MIC [10, 27]: 4 µg/mL; MIC [12]: > 128 µg/mL
9 | Cc1cccc(C(CCNC2CCNCC2)c2cn(CC3CCCCC3)c3ccc(Br)cc23)c1.Cl (stereo not shown) [Compound 163, N-(3-(5-bromo-1-(cyclohexylmethyl)-1H-indol-3-yl)-3-(m-tolyl)propyl)piperidin-4-amine hydrochloride salt] | 2 | 4 | 1 | 16 | 4 | 2 | 4 | 8 | 2 | 4 | 4 | 16 | 8.5 | 4 | 2 | 4 | MIC [10, 28]: 2 µg/mL
10 | Cc1cccc(CC(CC(=O)N[C@H]2CC[C@H](N)CC2)c2cn(CC3CCCCC3)c3ccccc23)c1.Cl (stereo partly drawn) [Compound 202, N-((1R,4R)-4-aminocyclohexyl)-3-(1-(cyclohexylmethyl)-1H-indol-3-yl)-4-(m-tolyl)butanamide hydrochloride salt] | 4 | 64 | 2 | 32 | 32 | 4 | 8 | 16 | 8 | 16 | 16 | 32 | 10.7 | 16 | 33 | 128 | 
11 | Cc1cccc(C(CCNC2CCCCC2)c2cn(CC3CCCCC3)c3ccccc23)c1.Cl (stereo not shown) [Compound 215, N-(3-(1-(cyclohexylmethyl)-1H-indol-3-yl)-3-(m-tolyl)propyl) cyclohexanamine hydrochloride salt] | 1 | > 128 | 2 | > 128 | > 128 | 1 | > 128 | 2 | 2 | 2 | 16 | > 128 |  | 64 | > 128 | > 128 | MIC [10, 28]: 2 µg/mL
